The source of these data is patent publication US20070249670A1, “Glycogen Phosphorylase Inhibitor Compounds and Pharmaceutical Compositions Thereof” (SMITHKLINE BEECHAM CORPORATION, priority 2004, published 2007).

The structures appear in SMILES notation.

The assay has as its target T1, human liver glycogen phosphorylase a (HLGPa) (Homo sapiens, UniProt P06737).
T1 construct: creating a full-length cDNA fused at the 5′ end to codons for methionine-glycine-alanine-histidine; 6xHis tag (leader Met-Gly-Ala-His6-Gly-Gly) (N); made in house; host or cells: E. coli (bacterial expression plasmid pTXK1007LTev)
T1 sequence (P06737 2-847 limits assumed): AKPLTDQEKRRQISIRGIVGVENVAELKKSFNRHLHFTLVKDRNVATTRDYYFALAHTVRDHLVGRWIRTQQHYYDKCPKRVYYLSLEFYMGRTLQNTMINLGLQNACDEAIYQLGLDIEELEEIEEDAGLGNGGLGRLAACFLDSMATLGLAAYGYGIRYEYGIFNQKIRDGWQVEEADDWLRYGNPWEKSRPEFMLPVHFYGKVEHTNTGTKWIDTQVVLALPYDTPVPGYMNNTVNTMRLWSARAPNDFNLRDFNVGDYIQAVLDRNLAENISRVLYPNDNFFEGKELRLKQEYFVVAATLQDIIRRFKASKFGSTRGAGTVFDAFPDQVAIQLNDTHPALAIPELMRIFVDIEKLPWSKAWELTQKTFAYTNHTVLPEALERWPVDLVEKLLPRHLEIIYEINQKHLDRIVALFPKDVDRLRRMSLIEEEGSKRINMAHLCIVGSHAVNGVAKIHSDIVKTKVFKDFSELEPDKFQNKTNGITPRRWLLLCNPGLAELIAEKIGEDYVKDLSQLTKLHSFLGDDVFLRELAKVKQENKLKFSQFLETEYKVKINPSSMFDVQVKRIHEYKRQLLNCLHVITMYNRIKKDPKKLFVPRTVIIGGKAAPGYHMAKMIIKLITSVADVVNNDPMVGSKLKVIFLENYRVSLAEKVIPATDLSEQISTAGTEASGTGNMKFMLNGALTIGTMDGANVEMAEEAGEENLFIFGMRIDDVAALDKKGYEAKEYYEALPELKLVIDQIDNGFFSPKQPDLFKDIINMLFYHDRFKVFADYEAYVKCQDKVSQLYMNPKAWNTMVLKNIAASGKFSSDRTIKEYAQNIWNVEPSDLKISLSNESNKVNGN
Nature of the assay: Human liver glycogen phosphorylase a enzymatic activity assay (coupled, fluorescent resorufin readout, with and without 10 mM glucose). The class given is biochemical. The note with it: human liver glycogen phosphorylase a; table does not say whether with or without 10 mM glucose.

Molecule `COc1ccc(-c2ccc(C(=O)N[C@H](C(=O)O)C3CCCCC3)c(NC(=O)Nc3c(C)cc(C)cc3C)c2)cc1OC` [Example 229, (2S)-({[3′,4′-Bis(methyloxy)-3-({[(2,4,6-trimethylphenyl)amino]carbonyl}amino)-4-biphenylyl]carbonyl}amino)(cyclohexyl)ethanoic acid] came in with a concentration for half-maximal inhibition (IC50) of 3 nM.
As to `Cc1cc(C)c(NC(=O)Nc2cc(F)c(F)cc2C(=O)N[C@H](C(=O)O)C2CCCCC2)c(C)c1` [Example 230, (2S)-Cyclohexyl({[4,5-difluoro-2-({[(2,4,6-trimethylphenyl)amino]carbonyl}amino)phenyl]carbonyl}amino)ethanoic acid], the IC50 stood at 58 nM.
Molecule `COc1ccc(-c2ccc(C(=O)NC3(C(=O)O)CCCCCCC3)c(NC(=O)Nc3c(C)cc(C)cc3C)c2)cc1` [Example 231, 1-({[4′-(Methyloxy)-3-({[(2,4,6-trimethylphenyl)amino]carbonyl}amino)-4-biphenylyl]carbonyl}amino)cyclooctanecarboxylic acid] registered an IC50 of 1 nM.
`COc1ccc(-c2ccc(C(=O)N[C@H](C(=O)O)[C@@H](C)OC(C)(C)C)c(NC(=O)Nc3c(Cl)cc(OC(F)(F)F)cc3Cl)c2)cc1` [Example 232, N-{[3-{[({2,6-Dichloro-4-[(trifluoromethyl)oxy]phenyl}amino)carbonyl]amino}-4′-(methyloxy)-4-biphenylyl]carbonyl}-O-(1,1-dimethylethyl)-L-threonine] gave a 50% inhibitory concentration (IC50) of 7 nM.
Molecule `Cc1cc(C)c(NC(=O)Nc2cc(-c3cccc(F)c3)ccc2C(=O)N[C@H](C(=O)O)[C@@H](C)OC(C)(C)C)c(C)c1` [Example 233, O-(1,1-Dimethylethyl)-N-{[3′-fluoro-3-({[(2,4,6-trimethylphenyl)amino]carbonyl}amino)-4-biphenylyl]carbonyl}-L-threonine] gave an IC50 of 23 nM.
To `Cc1cc(C)c(NC(=O)Nc2cc(-c3cccc(F)c3)ccc2C(=O)N[C@H](C(=O)O)C2CCCCC2)c(C)c1` [Example 234, (2S)-Cyclohexyl({[3′-fluoro-3-({[(2,4,6-trimethylphenyl)amino]carbonyl}amino)-4-biphenylyl]carbonyl}amino)ethanoic acid] belongs 24 nM; to `COc1ccc(-c2ccc(C(=O)N[C@H](C(=O)O)[C@@H](C)OC(C)(C)C)c(NC(=O)Nc3c(C)cc(C)cc3C)c2)cc1F` [Example 235, O-(1,1-Dimethylethyl)-N-{[3′-fluoro-4′-(methyloxy)-3-({[(2,4,6-trimethylphenyl)amino]carbonyl}amino)-4-biphenylyl]carbonyl}-L-threonine], 13 nM.
Molecule `CCCc1cc(C)c(NC(=O)Nc2cc(-c3ccc(OC)cc3)ccc2C(=O)N[C@H](C(=O)O)[C@@H](C)OC(C)(C)C)c(C)c1` [Example 236, O-(1,1-Dimethylethyl)-N-{[3-({[(2,6-dimethyl-4-propylphenyl)amino]carbonyl}amino)-4′-(methyloxy)-4-biphenylyl]carbonyl}-L-threonine] came in with an IC50 of 4 nM.
`COc1ccc(-c2ccc(C(=O)N[C@H](C(=O)O)C3CCCCC3)c(NC(=O)Nc3c(C)cc(C)cc3C)c2)cc1F` [Example 237, (2S)-Cyclohexyl({[3′-fluoro-4′-(methyloxy)-3-({[(2,4,6-trimethylphenyl)amino]carbonyl}amino)-4-biphenylyl]carbonyl}amino)ethanoic acid] yielded an IC50 of 20 nM.
In the case of `COc1ccc(-c2ccc(C(=O)NC3(C(=O)O)CCCCCCC3)c(NC(=O)Nc3c(C)cc(C)cc3C)c2)cc1F` [Example 238, 1-({[3′-Fluoro-4′-(methyloxy)-3-({[(2,4,6-trimethylphenyl)amino]carbonyl}amino)-4-biphenylyl]carbonyl}amino)cyclooctanecarboxylic acid], half-maximal inhibition (IC50) required 10 nM.
Regarding `COc1ccc(NC(=O)Nc2cc3ccccc3cc2C(=O)N[C@H](C(=O)O)C2CCCCC2)c(OC)c1` [Example 239, (2S)-[({3-[({[2,4-bis(methyloxy)phenyl]amino}carbonyl)amino]-2-naphthalenyl}carbonyl)amino](cyclohexyl)ethanoic acid], the IC50 came to 2380 nM. Against the preceding molecule, the IC50 is about 240-fold higher.
Turning to `O=C(Nc1cc(C(F)(F)F)cc(C(F)(F)F)c1)Nc1cc2ccccc2cc1C(=O)N[C@H](C(=O)O)C1CCCCC1` [Example 240, (2S)-[({3-[({[3,5-bis(trifluoromethyl)phenyl]amino}carbonyl)amino]-2-naphthalenyl}carbonyl)amino](cyclohexyl)ethanoic acid], it took 8180 nM to reach half-maximal inhibition (IC50).
With `Cc1cccc(C)c1NC(=O)Nc1cc2ccccc2cc1C(=O)N(CC(=O)O)Cc1ccccn1` [Example 241, N-{[3-({[(2,6-dimethylphenyl)amino]carbonyl}amino)-2-naphthalenyl]carbonyl}-N-(2-pyridinylmethyl)glycine], the midpoint of inhibition, the IC50, lay at 3610 nM.
`O=C(O)CN(Cc1ccccn1)C(=O)c1cc2ccccc2cc1NC(=O)Nc1c(Cl)cc(Cl)cc1Cl` [Example 242, N-(2-pyridinylmethyl)-N-{[3-({[(2,4,6-trichlorophenyl)amino]carbonyl}amino)-2-naphthalenyl]carbonyl}glycine] displayed an IC50 of 2860 nM.
To `Cc1cccc(C)c1NC(=O)Nc1cc2ccccc2cc1C(=O)N(CC(=O)O)CC1CCCCC1` [Example 243, N-(cyclohexylmethyl)-N-{[3-({[(2,6-dimethylphenyl)amino]carbonyl}amino)-2-naphthalenyl]carbonyl}glycine] belongs 1770 nM; to `Cc1cccc(C)c1NC(=O)Nc1cc2ccccc2cc1C(=O)N(CC(=O)O)C1CCCC1` [Example 244, N-cyclopentyl-N-{[3-({[(2,6-dimethylphenyl)amino]carbonyl}amino)-2-naphthalenyl]carbonyl}glycine], 970 nM.
Consider `Cc1cccc(C)c1NC(=O)Nc1cc2ccccc2cc1C(=O)N(CC(=O)O)C1CCCCC1` [Example 245, N-cyclohexyl-N-{[3-({[(2,6-dimethylphenyl)amino]carbonyl}amino)-2-naphthalenyl]carbonyl}glycine], for which the IC50 worked out at 2130 nM. This IC50 lies about 2.2-fold higher than the previous one.
In the case of `Cc1cccc(C)c1NC(=O)Nc1cc2ccccc2cc1C(=O)N(CC(=O)O)CC(=O)O` [Example 246, 2,2′-({[3-({[(2,6-dimethylphenyl)amino]carbonyl}amino)-2-naphthalenyl]carbonyl}imino)diacetic acid], the midpoint of inhibition, the IC50, lay at 2120 nM.
The same measure for `CCCCc1ccc(NC(=O)Nc2cc3ccccc3cc2C(=O)N[C@H](C(=O)O)C2CCCCC2)cc1` [Example 247, (2S)-({[3-({[(4-butylphenyl)amino]carbonyl}amino)-2-naphthalenyl]carbonyl}amino)(cyclohexyl)ethanoic acid]: 10400 nM; for `O=C(Nc1ccc2c(c1)CCO2)Nc1cc2ccccc2cc1C(=O)N[C@H](C(=O)O)C1CCCCC1` [Example 248, (2S)-cyclohexyl{[(3-{[(2,3-dihydro-1-benzofuran-5-ylamino)carbonyl]amino}-2-naphthalenyl)carbonyl]amino}ethanoic acid]: 15100 nM.
On to `Cc1onc(-c2ccccc2)c1NC(=O)Nc1cc2ccccc2cc1C(=O)N[C@H](C(=O)O)C1CCCCC1` [Example 249, (2S)-cyclohexyl({[3-({[(5-methyl-3-phenyl-4-isoxazolyl)amino]carbonyl}amino)-2-naphthalenyl]carbonyl}amino)ethanoic acid], for which the IC50 was 17400 nM.
